# Laboratory results taken from US20240415808A1, “Dosage Regimen for Fexuprazan Injection Composition” (Daewoong Pharmaceutical Co., Ltd., priority 2021, published 2024).
# “And” between values parts separate entries of the source, which are not always exact repeats. Equal values may be shown once.
# Key:
# [1] = tested on: acidity (pH) in the gastrointestinal tract; assay: single intravenous dose-escalation clinical trial, acidity (pH) in the gastrointestinal tract; type: in vivo, human; conditions: healthy adults; for Fraction time pH ≥ 4 (%) / Fraction time pH ≥ 6 (%): 24 hours after medication
# Experimental: (§1) In order to confirm the safety/PK/PD of the compound of the present invention during intravenous administration, the clinical trial was designed with random assignment, double-blind, placebo-controlled, single dose, and stepwise dose-escalation in healthy adults (Korean/Chinese) between the ages of 19 and 50.
# (§2) A stabilizer (200 mg), a freeze-drying auxiliary agent (200 mg), and the previously prepared fexuprazan hydrochloride (40 mg based on fexuprazan weight) were dissolved in water for injection (4 mL), and an appropriate amount of acid was added thereto to adjust the pH to 4.0. The prepared solution was put into a vial, dried by a freeze-drying method, and prepared as a freeze-drying agent.
# (§3) The freeze-dried composition prepared as above was used, but a total of 28 subjects of 4, 8, 8, and 8 subjects each were enrolled for four dose groups (10 mg, 20 mg, 40 mg, and 80 mg) based on fexuprazan weight, and each group was randomly assigned to test or control groups in the order that they passed the screening criteria at a ratio of 3:1. All test subjects completed safety, pharmacokinetic, and pharmacodynamic evaluations according to the planned clinical trial schedule.
# (§4) The medication was performed in the morning, and the patient was discharged from the hospital on the third day of medication. Subsequently, a close-out visit was performed between the 8th and 11th day of medication.
# (§5) Testing of the acidity (pH) in the gastrointestinal tract and gastric secretion promoting hormone gastrin were performed from 24 hours before medication to 24 hours after medication. Blood collection for pharmacokinetics and urine collection for pharmacokinetics were performed for 48 hours from the time of medication.
# [2] = single intravenous dose-escalation clinical trial, safety; type: in vivo, human; conditions: healthy adults, single intravenous 10, 20, 40, 80 mg
# Experimental: as §1, §3, §5
# [3] = 4-week repeated intravenous toxicity test, beagle dog; type: in vivo
# Experimental: The previously prepared fexuprazan hydrochloride was dissolved in a solution containing 30 wt. % of polyethylene glycol (Polyethylene Glycol 400) polymer in physiological saline, and the concentration was calculated based on fexuprazan weight so that it could be administered at a liquid volume of 5 mL/kg for rats and 2 mL/kg for beagle dogs to prepare each composition. Toxicity was evaluated by intravenously administering at doses of 0, 2.5, 5, and 10 mg/kg/day to rats and beagle dogs, respectively, once a day for 4 weeks.
# [4] = oral vs intravenous two-way crossover clinical trial, pharmacokinetics / bioavailability; type: in vivo; conditions: human, blood, healthy adults; for Cmax: n 8
# Source text: Therefore, in order to compare the safety/PK/PD of the compound of the present invention during single intravenous administration and during single oral administration and derive the bioavailability, the clinical trial was designed as a randomized, open-label, single-dose, two-period, two-way crossover trial in healthy adults. The selection/exclusion criteria were the same as in Experimental Example 4. A total of 8 subjects were enrolled, and four subjects each were randomly assigned to sequence group 1 or sequence group 2 in the order in which they passed the screening criteria. All test subjects completed safety, pharmacokinetic, and pharmacodynamic evaluations according to the planned clinical trial schedule.
# A screening visit was performed 3 to 28 days before the start of the clinical trial, and hospital admission was performed 2 days before medication. The first phase medication was performed according to the order group randomly assigned on the morning of the day. A stabilizer (200 mg), a freeze-drying auxiliary agent (200 mg), and the previously prepared fexuprazan hydrochloride (40 mg based fexuprazan weight) were dissolved in water for injection (4 mL), an appropriate amount of acid was added thereto. A composition whose pH was adjusted to 4.0 was administered intravenously, or an excipient (100 mg), a disintegrant (5 mg), and the previously prepared fexuprazan hydrochloride (40 mg based on fexuprazan weight) were mixed and compressed to prepare a tablet, which were administered orally. The hospital discharge was performed on the third day of medication. The second phase medication was performed on the morning of the 8th after hospital admission on the 6th day after the first phase medication. Hospital discharge was performed on the 10th day of medication. Subsequently, a close-out visit was performed between 15 and 18 days after medication (FIG. 6).
# as §5
# [5] = single intravenous dose-escalation clinical trial, pharmacokinetics; type: in vivo; conditions: human, blood, healthy adults
# Experimental: as §1, §2, §3, §4, §5
# After a single intravenous administration of four dose groups for fexuprazan, the dose proportionality of fexuprazan to the Cmax, AUClast, and AUCinf parameters was evaluated between doses of 10 mg and 80 mg. The log-transformed parameters and 95% confidence interval regression lines of each dose after a single administration are shown in Table 7 and FIG. 3, respectively. […] That is, it can be confirmed that the pK parameter of intravenous administration is proportional to the dose.
# Table 8 and FIG. 4 show the results of the Kruskal Wallis test for dose-normalized Cmax (Cmax/Dose), AUClast (AUClast/Dose), and AUCinf (AUCinf/Dose) between dose groups. […] That is, it can be seen that there is no significant difference between dose groups in the proportional relationship, and the appropriate dose for intravenous administration can be calculated indirectly through the appropriate dose for oral administration.
# [6] = intravenous administration (40 mg)
structure (smiles),measurement,setting,value
"CNCc1cn(S(=O)(=O)c2cccc(F)c2)c(-c2ccc(F)cc2F)c1OC [Fexuprazan, 1-(5-(2,4-difluorophenyl)-1-((3-fluorophenyl)sulfonyl)-4-methoxy-1H-pyrrol-3-yl)-N-methylmethanamine]",time during which the pH maintained above 6 for 12 hours,"[1]; intravenous administration of 40 mg, 12 hours",≥ 50%
same,Mean pH,[1]; single intravenous 10 mg,2.7 ± 0.1
same,Median pH,[1]; single intravenous 10 mg,2.1 ± 0.2
same,Fraction time pH ≥ 4 (%),[1]; single intravenous 10 mg,20.4 ± 2.6%
same,Fraction time pH ≥ 6 (%),[1]; single intravenous 10 mg,2.9 ± 2.0%
same,Mean pH,[1]; single intravenous 20 mg,3.9 ± 0.8
same,Median pH,[1]; single intravenous 20 mg,3.8 ± 1.3
same,Fraction time pH ≥ 4 (%),[1]; single intravenous 20 mg,46.7% and 46.7 ± 19.0%
same,Fraction time pH ≥ 6 (%),[1]; single intravenous 20 mg,16.7 ± 14.6%
same,Mean pH,[1]; single intravenous 40 mg,4.9 ± 0.3
same,Median pH,[1]; single intravenous 40 mg,5.4 ± 0.6
same,Fraction time pH ≥ 4 (%),[1]; single intravenous 40 mg,71.0 ± 10.3%
same,Fraction time pH ≥ 6 (%),[1]; single intravenous 40 mg,38.3 ± 9.0%
same,Mean pH,[1]; single intravenous 80 mg,5.9 ± 0.4
same,Median pH,[1]; single intravenous 80 mg,6.2 ± 0.3
same,Fraction time pH ≥ 4 (%),[1]; single intravenous 80 mg,92.9 ± 4.8%
same,Fraction time pH ≥ 6 (%),[1]; single intravenous 80 mg,59.65% and 59.7 ± 15.7%
same,serious abnormalities or side effects,[2],no serious abnormalities or side effects were observed
same,Result: harmless dose,"[3]; Beagle dog, 4 weeks, intravenous, doses 0, 2.5, 5, 10",harmless dose 10 mg/kg
same,toxic symptoms due to the test substance,"[3]; beagle dogs, 2.5, 5, 10 mg/kg/day intravenous, 4 weeks",no toxic symptoms due to the test substance were observed in all administration groups
same,harmless dose,"[3]; beagle dogs, intravenous once a day for 4 weeks",10 mg/kg/day
same,AUC(0-inf),[4]; [6],1150 ± 279 ng·h/mL
same,AUC(0-t),[4]; [6],1110 ng·h/mL
same,Tmax,[4]; [6],0.25 h
same,half-life,[4]; [6],9.53 ± 2.42 h
same,Cmax,[4]; [6],277 ng/mL
same,AUC(0-inf),[4]; oral administration (40 mg),556 ± 299 ng·h/mL
same,AUC(0-t),[4]; oral administration (40 mg),536 ng·h/mL
same,Tmax,[4]; oral administration (40 mg),2.09 h
same,half-life,[4]; oral administration (40 mg),9.38 ± 1.6 h
same,Cmax,[4]; oral administration (40 mg) tablet,49.9 ng/mL
same,AUC(0-inf),[5]; single intravenous 10 mg,240 ± 31.3 ng·h/mL
same,AUC(0-t),[5]; single intravenous 10 mg,235 ± 32.3 ng·h/mL
same,clearance,[5]; single intravenous 10 mg,702 mL/min
same,half-life,[5]; single intravenous 10 mg,9.04 ± 0.85 h
same,Cmax,[5]; single intravenous 10 mg (N = 3),93.7 ± 13.9 ng/mL
same,AUC(0-inf),[5]; single intravenous 20 mg,514 ± 113 ng·h/mL
same,AUC(0-t),[5]; single intravenous 20 mg,502 ± 111 ng·h/mL
same,clearance,[5]; single intravenous 20 mg,677 mL/min
same,half-life,[5]; single intravenous 20 mg,8.61 ± 1.89 h
same,Cmax,[5]; single intravenous 20 mg (N = 6),185 ± 32.3 ng/mL
same,AUC(0-inf),[5]; single intravenous 40 mg,1100 ± 238 ng·h/mL
same,AUC(0-t),[5]; single intravenous 40 mg,1070 ± 225 ng·h/mL
same,clearance,[5]; single intravenous 40 mg,630 mL/min
same,half-life,[5]; single intravenous 40 mg,8.84 ± 0.96 h
same,Cmax,[5]; single intravenous 40 mg (N = 6),321 ± 75.7 ng/mL
same,AUC(0-inf),[5]; single intravenous 80 mg,2380 ± 301 ng·h/mL
same,AUC(0-t),[5]; single intravenous 80 mg,2290 ± 271 ng·h/mL
same,clearance,[5]; single intravenous 80 mg,567 mL/min
same,half-life,[5]; single intravenous 80 mg,10.2 ± 1.84 h
same,Cmax,[5]; single intravenous 80 mg (N = 6),633 ± 165 ng/mL
